Where a SMILES comes first, the peptide text is derived from it.
B1: recombinant tissue factor: recombinant tissue factor based PT reagent, named in b17 as comparison for sensitivity (protein, UniProt P13726 33-295, looked up)
Tissue factor: SGTTNTVAAYNLTWKSTNFKTILEWEPKPVNQVYTVQISTKSGDWKSKCFYTTDTECDLTDEIVKDVKQTYLARVFSYPAGNVESTGSAGEPLYENSPEFTPYLETNLGQPTIQSFEQVGTKVNVTVEDERTLVRRNNTFLSLRDVFGKDLIYTLYYWKSSSSGKKTAKTNTNEFLIDVDKGENYCFSVQAVIPSRTVNRKSTDSPVECMGQEKGEFREIFYIIGAVVFVVIILVIILAISLHKCRKAGVGQSWKENSPLNVS
modifications: PT reagent
notes: recombinant tissue factor based PT reagent, named in b17 as comparison for sensitivity

How the values were obtained:
[1] = test system: Level I (normal control) and Level III (abnormal control) control plasma; experiment: traditional prothrombin time test method using a Fibrometer; settings: amino acid stabilizer compound formulated into PT reagent (summary of Examples 1 to 13)
Description: The concentration of the dissolved phospholipids was 12.76 mM. […] Additional bovine serum albumin was added to a concentration of 4.8 mg/ml. […] The dialyzed lipidated tissue factor, was then drained from the dialysis bag. […] The formulated material was frozen at −70° C., and then thawed. The thawed formulated material was incubated at 25 and 37° C. for 4 weeks, The reagent was taken out from the incubation at weekly intervals and subjected to coagulation assay by traditional prothrombin time test method using a Fibrometer. The control plasma samples used for the assay were Level I (normal control) and Level III (abnormal control) of Ortho Diagnostics Corporation. […] The Level III abnormal control plasma contains a reduced amount of coagulation factors representing the plasma of patients.

[2] = test system: Control Level I or Level III plasma samples; experiment: clotting assay of air-dried reagent in cuvets for Protime instrument; assay type: biochemical; settings: Example 11 lipidated tissue factor in 14 mM Hepes, 4% sorbitol, 1% β-alanine, with 1% polymeric carbohydrate or none
Description: The formulated material was air-dried at 20° C. and 5% relative humidity in cuvets for Protime instrument (a product of International Technidyne Corporation, Edison, N.J.). The produced cuvets with reagent were incubated at 25, 37 and 45° C. for stability studies. At given time intervals, the cuvets were taken out of the incubators and assayed for their clotting activities. Freshly withdrawn blood, Control Level I or Level III plasma samples were added to the cuvets with the dried reagent for assay. Calcium chloride, 8.3 mM, was added to the control plasmas and loaded on the cuvet immediately for assay. In this assay system, reconstitution of the dried reagent is done with plasma or blood, without using water, which is different from Fibrometer assay system. Thence, the kinetics involved in these two systems are different, as well as the clotting times. Whole blood contains a considerable amount of red blood cells and other blood components and its clotting activity is different from that of plasma. For comparison, the clotting time with freshly withdrawn whole blood at day zero was 22.8 seconds.
As shown in the results, γ-Cyclodextrin is a useful homogeneous polymeric carbohydrate to adjust the sensitivity of the synthetic PT reagent.

[3] = test system: Level III and Level I plasma; settings: prior art comparison; cited from earlier work

Molecule | Level III/I ratio test results [1] | other results
N=C(N)NCCC[C@H](N)C(=O)O [Arginine] | Unsatis- | 
N[C@@H](CC(=O)O)C(=O)O [Aspartic acid] | Unsatis- | 
NCCC(=O)O [Beta alanine] | Satisfac- | 
NCCCCC(=O)O [Delta aminovaleric acid] | Satisfac- | 
NCCCC(=O)O [Gamma aminobutyric acid] | Satisfac- | 
NCC(=O)NCC(=O)O [Glycylglycine] (H-Gly-Gly-OH) | Unsatis- | 
OC[C@H]1O[C@@H]2O[C@H]3[C@H](O)[C@@H](O)[C@@H](O[C@H]4[C@H](O)[C@@H](O)[C@@H](O[C@H]5[C@H](O)[C@@H](O)[C@@H](O[C@H]6[C@H](O)[C@@H](O)[C@@H](O[C@H]7[C@H](O)[C@@H](O)[C@@H](O[C@H]8[C@H](O)[C@@H](O)[C@@H](O[C@H]9[C@H](O)[C@@H](O)[C@@H](O[C@H]1[C@H](O)[C@H]2O)O[C@@H]9CO)O[C@@H]8CO)O[C@@H]7CO)O[C@@H]6CO)O[C@@H]5CO)O[C@@H]4CO)O[C@@H]3CO [γ-Cyclodextrin] |  | Clotting Times, Level I [2]: 17.6 s; Clotting Times, Level III [2]: 81.8 s; III/I Ratio [2]: 4.7
NCCCCCC(=O)O [ε-aminocaproic acid] | Unsatis- | 
B1 |  | Level III/I sensitivity [3]: 4.0

Reference: US6733985B1, “Preparation of stable liquid and dried synthetic prothrombin time reagents” (International Technidyne Corporation, priority 1999, dated 2004)
